Experimental data as given in ChEMBL document CHEMBL3596180, “Evaluation of histone deacetylase inhibitors (HDACi) as therapeutic leads for human African trypanosomiasis (HAT)” (Bioorg Med Chem, 2015).
pEC50, pKi: −log10 of the molar value. The source made the active and inactive calls. The rule behind the calls is not given here.

How the values were obtained:
[1] = system: Trypanosoma brucei brucei; test: Antitrypanosomal activity against Trypanosoma brucei brucei 427 assessed as inhibition of parasite proliferation measured as ATP levels after 48 hrs by luciferase-based assay; assay type: functional, organism-based; settings: Trypanosoma brucei, 427, 48 h
[2] = Tmax in iv dosed human measured under phase 1 trial; assay type: ADME, organism-based; settings: in vivo
[3] = Half-life in iv dosed human measured under phase 1 trial; assay type: ADME, organism-based; settings: in vivo
[4] = Cmax in po dosed human measured under phase 1 trial; assay type: ADME, organism-based; set-up: route oral; settings: in vivo
[5] = Half-life in po dosed human measured under phase 1 trial; assay type: ADME, organism-based; settings: in vivo
[6] = AUC in iv dosed human measured under phase 1 trial; assay type: ADME, organism-based; settings: in vivo
[7] = Tmax in po dosed human measured under phase 2 trial; assay type: ADME, organism-based; settings: in vivo
[8] = AUC in po dosed human measured under phase 2 trial; assay type: ADME, organism-based; settings: in vivo
[9] = Half-life in po dosed human measured under phase 2 trial; assay type: ADME, organism-based; settings: in vivo
[10] = Cmax in po dosed human measured under phase 2 trial; assay type: ADME, organism-based; set-up: route oral; settings: in vivo
[11] = Cmax in iv dosed human measured under phase 1 trial; assay type: ADME, organism-based; set-up: route intravenous; settings: in vivo
[12] = Tmax in po dosed human measured under phase 1 trial; assay type: ADME, organism-based; settings: in vivo
[13] = AUC in po dosed human measured under phase 1 trial; assay type: ADME, organism-based; settings: in vivo
[14] = system: Trypanosoma brucei brucei; test: Trypanocidal activity against Trypanosoma brucei brucei assessed as killing of parasite densities of 10^4 to 10^6 cells/ml at 2 uM after […] by clonal dilution method; assay type: functional, organism-based
[15] = Cmax in iv dosed human measured under phase 1/2 trial; assay type: ADME, organism-based; set-up: route intravenous; settings: in vivo
[16] = Tmax in iv dosed human measured under phase 1/2 trial; assay type: ADME, organism-based; settings: in vivo
[17] = system: Trypanosoma brucei brucei; test: Trypanocidal activity against Trypanosoma brucei brucei assessed as killing of parasite densities of 10^4 to 10^6 cells/ml at 180 uM after 4 hrs by clonal dilution method; assay type: functional, organism-based
[18] = AUC in iv dosed human measured under phase 1/2 trial; assay type: ADME, organism-based; settings: in vivo
[19] = Half-life in iv dosed human measured under phase 1/2 trial; assay type: ADME, organism-based; settings: in vivo
Histone deacetylase 11 = biological target: T1, Histone deacetylase 11 (Homo sapiens, UniProt Q96DB2); test: Inhibition of human HDAC11
T1 sequence (Q96DB2 whole entry): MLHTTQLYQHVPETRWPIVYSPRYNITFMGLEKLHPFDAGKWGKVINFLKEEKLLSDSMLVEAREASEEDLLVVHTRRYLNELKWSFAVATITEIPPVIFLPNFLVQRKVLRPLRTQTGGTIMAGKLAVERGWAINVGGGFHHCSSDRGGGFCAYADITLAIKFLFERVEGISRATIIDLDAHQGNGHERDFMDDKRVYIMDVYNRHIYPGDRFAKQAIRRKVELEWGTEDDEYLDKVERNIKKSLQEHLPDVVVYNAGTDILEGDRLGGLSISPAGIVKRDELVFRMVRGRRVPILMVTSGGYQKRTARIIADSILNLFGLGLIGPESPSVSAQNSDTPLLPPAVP

Histone deacetylase 3 = Histone deacetylase 3 (Homo sapiens, UniProt O15379); test: Inhibition of human HDAC3
Sequence of Histone deacetylase 3 (O15379 whole entry): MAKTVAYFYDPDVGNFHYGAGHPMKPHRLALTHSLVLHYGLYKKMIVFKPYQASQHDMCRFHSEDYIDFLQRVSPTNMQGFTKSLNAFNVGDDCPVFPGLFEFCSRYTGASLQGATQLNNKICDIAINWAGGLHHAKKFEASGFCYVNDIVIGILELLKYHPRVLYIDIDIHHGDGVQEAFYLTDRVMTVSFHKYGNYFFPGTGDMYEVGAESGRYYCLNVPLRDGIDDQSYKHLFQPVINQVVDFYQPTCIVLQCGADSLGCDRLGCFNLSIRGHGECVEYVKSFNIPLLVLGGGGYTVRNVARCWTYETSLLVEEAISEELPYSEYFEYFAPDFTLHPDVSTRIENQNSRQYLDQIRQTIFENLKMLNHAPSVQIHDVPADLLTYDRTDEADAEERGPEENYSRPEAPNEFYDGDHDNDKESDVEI

[20] = biological target: T2, Protein deacetylase HDAC6 (Homo sapiens, UniProt Q9UBN7); test: Inhibition of human HDAC6
T2 sequence (Q9UBN7 whole entry): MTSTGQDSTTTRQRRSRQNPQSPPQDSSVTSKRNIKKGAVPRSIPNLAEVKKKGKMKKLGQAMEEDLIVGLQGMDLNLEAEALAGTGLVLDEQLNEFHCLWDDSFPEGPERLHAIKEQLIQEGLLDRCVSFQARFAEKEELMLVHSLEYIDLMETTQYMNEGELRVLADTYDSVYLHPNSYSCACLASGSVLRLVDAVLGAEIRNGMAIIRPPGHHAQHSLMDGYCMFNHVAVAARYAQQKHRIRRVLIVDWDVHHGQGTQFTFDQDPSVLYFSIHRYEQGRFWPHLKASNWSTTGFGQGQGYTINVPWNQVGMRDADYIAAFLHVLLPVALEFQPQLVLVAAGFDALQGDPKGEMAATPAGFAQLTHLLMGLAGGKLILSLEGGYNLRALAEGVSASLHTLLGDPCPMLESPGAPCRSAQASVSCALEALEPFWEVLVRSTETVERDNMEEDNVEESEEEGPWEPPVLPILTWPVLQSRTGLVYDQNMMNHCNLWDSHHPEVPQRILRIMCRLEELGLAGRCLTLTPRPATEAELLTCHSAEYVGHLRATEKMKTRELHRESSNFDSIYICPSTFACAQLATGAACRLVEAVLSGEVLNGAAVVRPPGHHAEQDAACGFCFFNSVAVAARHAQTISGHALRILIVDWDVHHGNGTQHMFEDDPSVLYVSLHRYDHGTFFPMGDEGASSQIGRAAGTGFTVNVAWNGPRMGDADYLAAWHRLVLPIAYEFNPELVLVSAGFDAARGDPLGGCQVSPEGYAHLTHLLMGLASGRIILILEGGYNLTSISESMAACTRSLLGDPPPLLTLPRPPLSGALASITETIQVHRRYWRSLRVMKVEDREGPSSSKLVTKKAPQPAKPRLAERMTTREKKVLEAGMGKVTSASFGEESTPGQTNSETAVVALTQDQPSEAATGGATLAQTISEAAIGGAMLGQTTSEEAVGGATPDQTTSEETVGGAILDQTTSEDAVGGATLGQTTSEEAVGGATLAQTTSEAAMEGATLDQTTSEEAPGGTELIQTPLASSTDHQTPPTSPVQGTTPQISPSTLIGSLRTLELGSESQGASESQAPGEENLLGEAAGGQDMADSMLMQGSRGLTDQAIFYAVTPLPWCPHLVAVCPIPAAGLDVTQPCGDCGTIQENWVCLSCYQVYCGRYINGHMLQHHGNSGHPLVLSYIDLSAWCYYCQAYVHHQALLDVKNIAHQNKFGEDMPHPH

Histone deacetylase 1 = Histone deacetylase 1 (Homo sapiens, UniProt Q13547); test: Inhibition of human HDAC1
Sequence of Histone deacetylase 1 (Q13547 whole entry): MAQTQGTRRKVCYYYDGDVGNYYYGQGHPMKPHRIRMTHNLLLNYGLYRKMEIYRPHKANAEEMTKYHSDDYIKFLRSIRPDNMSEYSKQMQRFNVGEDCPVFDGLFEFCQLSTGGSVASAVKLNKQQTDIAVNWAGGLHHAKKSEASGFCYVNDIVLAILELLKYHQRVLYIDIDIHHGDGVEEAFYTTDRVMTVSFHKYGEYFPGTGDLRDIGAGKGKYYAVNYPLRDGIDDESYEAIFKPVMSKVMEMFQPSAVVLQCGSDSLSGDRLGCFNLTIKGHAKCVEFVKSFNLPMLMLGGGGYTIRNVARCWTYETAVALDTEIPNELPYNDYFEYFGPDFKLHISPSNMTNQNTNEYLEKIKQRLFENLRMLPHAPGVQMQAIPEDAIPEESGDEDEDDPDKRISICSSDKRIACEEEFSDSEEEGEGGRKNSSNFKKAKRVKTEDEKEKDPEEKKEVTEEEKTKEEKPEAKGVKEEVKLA

Histone deacetylase 4 = Histone deacetylase 4 (Homo sapiens, UniProt P56524); test: Inhibition of human HDAC4
Sequence of Histone deacetylase 4 (P56524 whole entry): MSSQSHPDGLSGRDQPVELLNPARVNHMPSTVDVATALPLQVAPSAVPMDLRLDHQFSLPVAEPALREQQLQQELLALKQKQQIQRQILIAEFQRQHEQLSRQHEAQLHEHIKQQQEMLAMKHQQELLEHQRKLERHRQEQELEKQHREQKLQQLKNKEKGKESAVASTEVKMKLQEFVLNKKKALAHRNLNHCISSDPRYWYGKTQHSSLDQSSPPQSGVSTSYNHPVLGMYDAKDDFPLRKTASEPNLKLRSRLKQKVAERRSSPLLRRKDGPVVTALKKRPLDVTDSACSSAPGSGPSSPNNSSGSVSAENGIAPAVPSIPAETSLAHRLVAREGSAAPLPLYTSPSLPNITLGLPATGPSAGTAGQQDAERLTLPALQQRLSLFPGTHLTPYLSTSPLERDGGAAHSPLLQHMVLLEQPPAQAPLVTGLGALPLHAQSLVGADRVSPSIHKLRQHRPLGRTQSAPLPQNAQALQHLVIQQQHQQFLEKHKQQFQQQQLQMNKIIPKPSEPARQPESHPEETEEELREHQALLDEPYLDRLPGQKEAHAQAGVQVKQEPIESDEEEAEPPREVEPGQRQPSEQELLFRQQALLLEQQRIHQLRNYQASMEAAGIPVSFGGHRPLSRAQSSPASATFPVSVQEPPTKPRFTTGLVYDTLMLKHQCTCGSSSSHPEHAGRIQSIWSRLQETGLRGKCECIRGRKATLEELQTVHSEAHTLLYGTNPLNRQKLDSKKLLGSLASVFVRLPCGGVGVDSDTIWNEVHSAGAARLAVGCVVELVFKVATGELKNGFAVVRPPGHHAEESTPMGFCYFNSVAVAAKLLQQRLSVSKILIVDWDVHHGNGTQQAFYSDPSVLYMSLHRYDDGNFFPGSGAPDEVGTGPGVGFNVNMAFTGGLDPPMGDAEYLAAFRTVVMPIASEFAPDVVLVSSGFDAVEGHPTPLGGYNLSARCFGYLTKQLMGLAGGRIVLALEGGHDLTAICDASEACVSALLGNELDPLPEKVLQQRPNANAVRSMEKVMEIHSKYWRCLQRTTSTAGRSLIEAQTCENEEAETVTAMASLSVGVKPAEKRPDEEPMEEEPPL

Row | SMILES | pEC50 [1] | Tmax [2] [h] | half-life [3] [h] | Cmax [4] [nM] | half-life [5] [h] | AUC [6] [ng·h/mL] | Cmax [11] [nM] | Tmax [12] [h] | AUC [13] [ng·h/mL] | further results
1 | Cc1[nH]c2ccccc2c1CCNCc1ccc(/C=C/C(=O)NO)cc1 [PANOBINOSTAT] | 5.80 | 0.5 | 16 | 31 | 12.8 | 605 | 1410 | 1.5 | 91.3 | EC90 [1]: 4860 nM; Tmax [7]: 1 h; AUC [8]: 356 ng·h/mL; half-life [9]: 15 h; Cmax [10]: 191 nM
2 | CCN(CC)Cc1ccc2cc(COC(=O)Nc3ccc(C(=O)NO)cc3)ccc2c1 [GIVINOSTAT] | 4.96 | – | – | 208 | 6 | – | – | 2.1 | 671 | –
3 | O=C(/C=C/c1ccc(CN(CCO)CCc2c[nH]c3ccccc23)cc1)NO [DACINOSTAT] | 5.58 | 2 | 8.29 | – | – | 2310 | 2170 | – | – | –
4 | O=C(/C=C/c1cccc(S(=O)(=O)Nc2ccccc2)c1)NO [BELINOSTAT] | 5.67 | 0 | 0.69 | 2140 | 1.5 | 9990 | 101000 | 1.9 | 2700 | EC90 [1]: 4010 nM; Activity [14]: inactive; Cmax [15]: 183000 nM; Tmax [16]: 0.45 h; Activity [17]: inactive; AUC [18]: 47500 ng·h/mL; half-life [19]: 3.49 h
5 | CCCCc1nc2cc(/C=C/C(=O)NO)ccc2n1CCN(CC)CC [PRACINOSTAT] | 5.02 | – | – | 497 | – | – | – | – | 1030 | pKi (Histone deacetylase 11): 7.37
6 | O=C(/C=C/C#Cc1cccc(NS(=O)(=O)c2ccccc2)c1)NO [OXAMFLATIN] | – | – | – | – | – | – | – | – | – | pKi (Histone deacetylase 3): 8.57; pKi [20]: 6.87; pKi (Histone deacetylase 1): 8.89; pKi (Histone deacetylase 4): 5.69
7 | O=C(Nc1ccccc1-c1cn2c(CN3CCNCC3)csc2n1)c1cnc2ccccc2n1 | 6.05 | – | – | – | – | – | – | – | – | –
8 | CC(/C=C/C(=O)NO)=C\[C@@H](C)C(=O)c1ccc(N(C)C)cc1 [TRICHOSTATIN] | 5.30 | – | – | – | – | – | – | – | – | –
